Experiments:
CYP3A4 = CYP3A4 (Homo sapiens, UniProt P08684); experiment: Cytochrome P450 (CYP450) Inhibition Assay, CYP3A4 (Vivid fluorescence, BOMCC substrate); conditions: for inhibition at 10 µM: human, P450 Baculosomes (recombinant CYP3A4), probe BOMCC (Vivid substrate)
sodium channel = experiment: Guanidine influx assay (14C-guanidine radiotracer flux, in vitro); type: cell-based, human or rat; conditions: guanidine influx assay using a known cell line that expresses a sodium channel
Text: This example describes an in vitro assay for testing and profiling test agents against human or rat sodium channels stably expressed in cells of either an endogenous or recombinant origin. The assay is also useful for determining the IC50 of a sodium channel blocking compound. The assay is based on the guanidine flux assay described by Reddy, N. L., et al., J. Med. Chem. (1998), 41(17):3298-302.
The guanidine influx assay is a radiotracer flux assay used to determine ion flux activity of sodium channels in a high-throughput microplate-based format. The assay uses ^14C-guanidine hydrochloride in combination with various known sodium channel modulators, to assay the potency of test agents. Potency is determined by an IC50 calculation. Selectivity is determined by comparing potency of the compound for the channel of interest to its potency against other sodium channels (also called ‘selectivity profiling’).
Each of the test agents is assayed against cells that express the channels of interest. Voltage gated sodium channels are either TTX sensitive or insensitive. This property is useful when evaluating the activities of a channel of interest when it resides in a mixed population with other sodium channels. The following Table 1 summarizes cell lines useful in screening for a certain channel activity in the presence or absence of TTX.
It is also possible to employ recombinant cells expressing these sodium channels. Cloning and propagation of recombinant cells are known to those skilled in the art (see, for example, Klugbauer, N, et al., EMBO J. (1995), 14(6):1084-90; and Lossin, C., et al., Neuron (2002), 34, pp. 877-884).
Cells expressing the channel of interest are grown according to the supplier or in the case of a recombinant cell in the presence of selective growth media such as G418 (Gibco/Invitrogen). The cells are disassociated from the culture dishes with an enzymatic solution (Ix) Trypsin/EDTA (Gibco/Invitrogen) and analyzed for density and viability using haemocytometer (Neubauer). Disassociated cells are washed and resuspended in their culture media then plated into Scintiplates (Beckman Coulter Inc.) (approximately 100,000 cells/well) and incubated at 37° C./5% CO2 for 20-24 hours. After an extensive wash with Low sodium HEPES-buffered saline solution (LNHBSS) (150 mM Choline Chloride, […] (Sigma), 1 mM Calcium Chloride, 5 mM Potassium Chloride, 1 mM Magnesium Chloride, 10 mM Glucose) agents diluted with LNHBSS are added to each well. (Varying concentrations of test agent may be used). The activation/radiolabel mixture contains aconitine (Sigma) to increase the percentage of time that the sodium channels are open, and ^14C-guanidine hydrochloride (ARC) to measure flux through the voltage-gated sodium channels.
After loading the cells with test agent and activation/radiolabel mixture, the Scintiplates are incubated at ambient temperature. Following the incubation, the Scintplates are extensively washed with LNHBSS supplemented with guanidine (Sigma). The Scintiplates are dried and then counted using a Wallac MicroBeta TriLux (Perkin-Elmer Life Sciences). The ability of the test agent to block sodium channel activity is determined by comparing the amount of ^14C-guanidine present inside the cells expressing the different sodium channels.
The IC50 value of a test agent for a specific sodium channel may be determined using the above general method. […] Typically the mid-point concentration of test agent is set at 1 μM, and sequential concentrations of half dilutions greater or smaller are applied (e.g. 0.5 μM; 5 μM and 0.25 μM; 10 μM and 0.125 μM; 20 μM etc.). The IC50 curve is calculated using the 4 Parameter Logistic Model or Sigmoidal Dose-Response Model formula (fit=(A+((B−A)/(1+((C/x)^D)))).
The fold selectivity, factor of selectivity or multiple of selectivity, is calculated by dividing the IC50 value of the test sodium channel by the reference sodium channel, for example, Nav1.5. […]

Chain of CYP3A4 (P08684 whole entry): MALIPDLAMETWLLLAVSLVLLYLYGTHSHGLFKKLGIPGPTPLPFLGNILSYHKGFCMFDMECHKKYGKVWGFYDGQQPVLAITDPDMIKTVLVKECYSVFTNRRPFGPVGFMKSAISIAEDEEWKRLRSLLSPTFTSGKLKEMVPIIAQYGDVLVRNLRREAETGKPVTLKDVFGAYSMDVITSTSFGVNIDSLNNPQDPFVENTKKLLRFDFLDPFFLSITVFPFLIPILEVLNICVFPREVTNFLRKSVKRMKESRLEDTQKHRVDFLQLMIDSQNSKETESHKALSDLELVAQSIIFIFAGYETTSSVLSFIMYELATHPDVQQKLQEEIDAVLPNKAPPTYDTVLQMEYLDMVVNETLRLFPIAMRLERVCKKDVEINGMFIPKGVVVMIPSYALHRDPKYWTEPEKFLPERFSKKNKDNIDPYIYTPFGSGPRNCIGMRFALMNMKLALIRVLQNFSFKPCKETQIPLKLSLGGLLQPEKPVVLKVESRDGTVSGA

inhibition at 10 µM (CYP3A4)	IC50 (sodium channel; activity level class)	IC50 (sodium channel)	Compound	% Inhibition of CYP3A4 (CYP3A4; at 10 μM)
< 50%	1 to 100 nM		O=C1N(Cc2ccc(-c3ccccc3)cc2)c2ccccc2C12COc1cc3c(cc12)CCO3 (stereo not shown) [Example 4.15, 1′-(biphenyl-4-ylmethyl)-5,6-dihydrospiro[benzo[1,2-b:5,4-b′]difuran-3,3′-indol]-2′(1′H)-one]	
< 50%	1 to 100 nM		O=C1N(Cc2ccccc2OC(F)(F)F)c2ccccc2C12COc1cc3c(cc12)OCCO3 (stereo not shown) [Example 7.27, 1′-[(2-trifluoromethoxy)benzyl]-2,3-dihydrospiro[furo[2,3-g][1,4]benzodioxine-8,3′-indol]-2′(1′H)-one]	
< 50%	1 to 100 nM		Cc1nonc1CN1C(=O)C2(COc3cc4c(cc32)OCCO4)c2ccccc21 (stereo not shown) [Example 7.18, 1′-[(4-methyl-1,2,5-oxadiazol-3-yl)methyl]-2,3-dihydrospiro[furo[2,3-g][1,4]benzodioxine-8,3′-indol]-2′(1′H)-one]	
> 50%	100 to 1000 nM		O=C1N(Cc2ccc(O)cn2)c2ccccc2C12COc1cc3c(c(F)c12)OCCO3 (stereo not shown) [Example 5.27, 9-fluoro-1′-[(5-hydroxypyridin-2-yl)methyl]-2,3-dihydrospiro[furo[2,3-g][1,4]benzodioxine-8,3′-indol]-2′(1′H)-one]	
< 50%	1 to 100 nM		COC(=O)c1coc(CN2C(=O)C3(COc4cc5c(cc43)CCO5)c3ccccc32)n1 (stereo not shown) [Example 4.11, methyl 2-[(2′-oxo-5,6-dihydrospiro[benzo[1,2-b:5,4-b′]difuran-3,3′-indol]-1′(2′H)-yl)methyl]-1,3-oxazole-4-carboxylate]	
< 50%	1 to 100 nM		O=C1N(C[C@@H]2CCCO2)c2ccccc2C12COc1cc3c(cc12)CCO3 (stereo partly drawn) [Example 4.5, 1′-[(2S)-tetrahydrofuran-2-ylmethyl]-5,6-dihydrospiro[benzo[1,2-b:5,4-b′]difuran-3,3′-indol]-2′(1′H)-one]	
< 50%			COc1ccc(Oc2cccc3c2C2(COc4cc5c(cc42)OCCO5)C(=O)N3C)cn1 (stereo not shown) [Example 16.82, 4′-[(6-methoxypyridin-3-yl)oxy]-1′-methyl-2,3-dihydrospiro[furo[2,3-g][1,4]benzodioxine-8,3′-indol]-2′(1′H)-one]	
> 50%	1 to 100 nM		O=C1N(Cc2ccc(C(F)(F)F)cn2)c2ccccc2C12COc1cc3c(cc12)OCCO3 (stereo not shown) [Example 7.12]	
< 50%	1 to 100 nM		O=C1N(Cc2ncccc2C(F)(F)F)c2cccc(F)c2C12COc1cc3c(cc12)OCCO3 (stereo not shown) [Example 5.20, 4′-fluoro-1′-{[3-(trifluoromethyl)pyridin-2-yl]methyl}-2,3-dihydrospiro[furo[2,3-g][1,4]benzodioxine-8,3′-indol]-2′(1′H)-one]	
< 50%		100 to 1000 nM	O=C(Nc1ccccc1F)c1ccc(CN2C(=O)C3(COc4cc5c(cc43)CCO5)c3ccccc32)cc1 (stereo not shown) [Example 12.29, N-(2-fluorophenyl)-4-[(2′-oxo-5,6-dihydrospiro[benzo[1,2-b:5,4-b′]difuran-3,3′-indol]-1′(2′H)-yl)methyl]benzamide]	
< 50%		1000 to 10000 nM	CS(=O)(=O)Nc1ccc2c(c1)OCC21C(=O)N(C[C@H]2CCCO2)c2ccccc21 (stereo partly drawn) [Example 11.48, N-{2′-oxo-1′-[(2R)-tetrahydrofuran-2-ylmethyl]-1′,2′-dihydrospiro[1-benzofuran-3,3′-indol]-6-yl}methanesulfonamide]	
> 50%		1000 to 10000 nM	CCN1CCC(CN2C(=O)C3(COc4cc5c(cc43)CCO5)c3ccccc32)CC1 (stereo not shown) [Example 11.8, 1-[(1-ethylpiperidin-4-yl)methyl]-5,6-dihydrospiro[benzo[1,2-b:5,4-b′]difuran-3,3′-indol]-2′(1′H)-one]	
> 50%		1 to 100 nM	O=C(NC1CC1)c1coc(CN2C(=O)C3(COc4cc5c(cc43)OCO5)c3ccccc32)n1 (stereo not shown) [Example 13.5, N-cyclopropyl-2-[(2′-oxospiro[furo[2,3-f][1,3]benzodioxole-7,3′-indol]-1′(2′H)-yl)methyl]-1,3-oxazole-4-carboxamide]	
> 50%	1000 to 10000 nM		O=C1Nc2ccccc2C12COc1ccc(F)cc12 (stereo not shown) [Example 3.8, 5-fluoro-spiro[1-benzofuran-3,3′-indol]-2′(1′H)-one]	
> 50%		100 to 1000 nM	O=C(NCC1CCCCC1)c1cccc(CN2C(=O)C3(COc4cc5c(cc43)CCO5)c3ccccc32)c1 (stereo not shown) [Example 12, N-(cyclohexylmethyl)-3-[(2′-oxo-5,6-dihydrospiro[benzo[1,2-b:5,4-b′]difuran-3,3′-indol]-1′(2′H)-yl)methyl]benzamide]	
			CC(=O)c1cccc2c1C1(COc3cc4c(cc31)OCCO4)C(=O)N2C (stereo not shown) [Example 24, 4′-acetyl-t-methyl-2,3-dihydrospiro[furo[2,3-g][1,4]benzodioxine-8,3′-indol]-2′(1′H)-one]	A (percent inhibition of less than 50% at 10 μM)
> 50%			CCCCCCN1C(=O)C2(COc3cc4c(cc32)OCCO4)c2ccccc21 (stereo not shown) [Example 7.5, 1′-hexyl-2,3-dihydrospiro[furo[2,3-g][1,4]benzodioxine-8,3′-indol]-2′(1′H)-one]	
< 50%			CN(C)C(=O)c1cccc2c1C1(COc3cc4c(cc31)OCCO4)C(=O)N2C (stereo not shown) [Example 16.78, N,N,1′-trimethyl-2′-oxo-1′,2,2′,3-tetrahydrospiro[furo[2,3-g][1,4]benzodioxine-8,3′-indole]-4′-carboxamide]	
> 50%			CN1C(=O)C2(COc3cc4c(cc32)OCCO4)c2c(Oc3cccc(N4CCOCC4)c3)cccc21 (stereo not shown) [Example 16.81, 1′-methyl-4′-(3-morpholin-4-ylphenoxy)-2,3-dihydrospiro[furo[2,3-g][1,4]benzodioxine-8,3′-indol]-2′(1′H)-one]	
< 50%			O=C1N(CCC2CC2)c2ccccc2C12COc1cc3c(cc12)OCCO3 (stereo not shown) [Example 7.6]	
> 50%			CN1C(=O)C2(COc3cc4c(cc32)OCCO4)c2c(Oc3ccc4c(c3)OCO4)cccc21 (stereo not shown) [Example 16.83, 4′-(1,3-benzodioxol-5-yloxy)-1′-methyl-2,3-dihydrospiro[furo[2,3-g][1,4]benzodioxine-8,3′-indol]-2′(1′H)-one]	
> 50%			CC(C)NC(=O)N1CCC(CN2C(=O)C3(COc4cc5c(cc43)CCO5)c3ccccc32)C1 (stereo not shown) [11.62, N-(1-methylethyl)-3-[(2′-oxo-5,6-dihydrospiro[benzo[1,2-b:5,4-b′]difuran-3,3′-indol]-1′(2′H)-yl)methyl]pyrrolidine-1-carboxamide]	
> 50%			CN1C(=O)C2(COc3cc4c(cc32)OCCO4)c2c(OCc3ccc(F)cc3)cccc21 (stereo not shown) [Example 16.86, 1′-methyl-4-(4-fluorobenzyloxy)-2,3-dihydrospiro[furo[2,3-g][1,4]benzodioxine-8,3′-indol]-2′(1′H)-one]	
< 50%			CCOCCN1C(=O)C2(COc3cc4c(cc32)OCCO4)c2ccccc21 (stereo not shown) [Example 7.7]	
< 50%			COCCCN1C(=O)C2(COc3cc4c(cc32)OCCO4)c2ccccc21 (stereo not shown) [Example 7.9]	

Compound	inhibition at 10 µM (CYP3A4)	IC50 (sodium channel; activity level class)	IC50 (sodium channel)	% Inhibition of CYP3A4 (CYP3A4; at 10 μM)
O=C1N(C[C@H]2CCCO2)c2ccccc2[C@]12COc1cc3c(cc12)CCO3 [Example 11.62, (3S)-1′-[(2R)-tetrahydrofuran-2-ylmethyl]-5,6-dihydrospiro[benzo[1,2-b:5,4-b′]difuran-3,3′-indol]-2′(1′H)-one]	< 50%			

Source: patent publication US8263606B2 (Xenon Pharmaceuticals Inc., priority 2008, dated 2012)
